Test results taken from publication PMC10786919, “Design-rules for stapled peptides with in vivo activity and their application to Mdm2/X antagonists” (Nature Communications, 2024).
Converted amounts (≈) assume the structure as drawn. Like-named read-outs stand apart in the source and are kept apart here. Positions of bridges follow the written chain, without caps; N, C: chain ends. Non-standard residues stand in square brackets, D forms with d. Residues, ends and D or L forms follow the SMILES beside them. Lys(N3) = [N-]=[N+]=NCCCC[C@H](N)C(=O)O; hArg = N=C(N)NCCCC[C@H](N)C(=O)O; R8 = C=CCCCCCC[C@@](C)(N)C(=O)O; Cba = N[C@@H](CC1CCC1)C(=O)O; S5 = C=CCCC[C@](C)(N)C(=O)O; βAla = NCCC(=O)O

Tests used:
[1] = Lactate dehydrogenase (LDH) release assay; assay type: cell-based
Procedure, shortened: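 HCT116 cells stably carrying a p53-responsive β-lactamase reporter, seeded at 8000 cells/well, exposed to compound with 0.5% final DMSO. LDH release read with the CytoTox-ONE membrane integrity kit. Values are geometric means of at least three biological replicates.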

[2] = Solubility assay (kinetic solubility, PBS pH 7); assay type: physicochemical; settings: for solubility kinetic: pH 7, aqueous buffer, kinetic from dmso stock, read-out: Solubility
Procedure, shortened: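 Values derive from peak-area ratios of sample versus a 100 µM standard, scaled by that standard's concentration.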

[3] = test system: Ca Ski cell line; settings: 72 h
Procedure, shortened: (§1)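 Compound dilution series (10 points, 3-fold, 10 mM top stock in DMSO) tested on overnight-plated Ca Ski cells in RPMI1640/10% FBS and on blasticidin-selected p53RE-bla HCT-116 cells in McCoy's 5A; read-out was CellTiter-Glo 2.0 luminescence after room-temperature equilibration.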

[4] = test system: CellSensor p53RE-bla HCT-116 Cell Line; settings: 72 h
Procedure, shortened: as §1

[5] = in vitro; settings: Nanoclick permeability assay EC50
Procedure, shortened: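 Azido-peptide permeability was read as loss of NanoBRET signal (donor 450 nm, acceptor 610 nm) after adding NanoBret618-azide at 10 μM final.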

[6] = EPSA; assay type: physicochemical; settings: EPSA
[7] = in vitro; settings: human, HCT116 whole cell homogenates
[8] = Experimental LogD (partition coefficient); settings: for logD: not stated, Partition Coeff LogD
[9] = physchem
[10] = biological target: T1, human Mdm2 1–125 (Homo sapiens, UniProt Q00987); assay: Mdm2 binding by competitive fluorescence anisotropy assay (FP binding); settings: read-out: FP binding assay KD
T1 construct: GST (N); His6 (internal); TEV cleavage site (ENLYFQG) (internal); made in house; host or cells: BL21 (DE3) Rosetta T1R Escherichia coli

[11] = test system: p53 responsive β-lactamase reporter in HCT116 cells; assay: cells; assay type: cell-based; settings: read-out: p53 reporter assay EC50
Procedure, shortened: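 HCT116 cells stably carrying a p53-responsive β-lactamase reporter, seeded at 8000 cells/well, with 0.5% DMSO final. Reporter activity read by ToxBLAzer Dual Screen. Values are geometric means of at least three biological replicates.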

[12] = test system: Jump-In T-REx CHO-K1 BLA cells; assay: cells; assay type: cell-based; settings: for EC50: read-out: TETCHO: Counterscreen EC50

T1 sequence (Q00987 with tags, fused parts or gaps): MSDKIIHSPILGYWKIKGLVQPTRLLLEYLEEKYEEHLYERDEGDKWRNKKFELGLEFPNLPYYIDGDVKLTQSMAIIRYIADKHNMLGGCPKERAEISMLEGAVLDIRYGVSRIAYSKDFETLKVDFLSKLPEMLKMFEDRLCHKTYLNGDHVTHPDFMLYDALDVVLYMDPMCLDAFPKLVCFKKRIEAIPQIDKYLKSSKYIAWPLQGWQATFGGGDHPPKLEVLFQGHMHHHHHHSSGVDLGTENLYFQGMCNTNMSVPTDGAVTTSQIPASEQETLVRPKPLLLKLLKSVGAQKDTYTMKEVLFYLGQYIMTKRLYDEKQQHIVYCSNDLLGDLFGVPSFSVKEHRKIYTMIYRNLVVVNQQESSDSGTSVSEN

Row | Compound | Solubility ([2]; pH 7, PBS) | cell entry EC50 [5] [µM] | Partition Coeff LogD [8] | EC50 ([1]; LDH: Cytotoxicity assay EC50) [µM] | EPSA [9] [A^2] | solubility kinetic ([2]; pH 7, PBS) [µM] | logD [8] | also measured
1 | CC(=O)N[C@@H](CCCCN=[N+]=[N-])C(=O)NCCC(=O)N[C@@H](CC(C)C)C(=O)N[C@H](C(=O)N[C@@H](Cc1ccccc1)C(=O)N[C@]1(C)CCCCCCC=CCCC[C@@](C)(C(=O)N[C@@H](C)C(=O)N[C@@H](C)C(=O)N[C@@H](C)C(=O)N[C@@H](C)C(=O)N[C@@H](C)C(=O)N[C@@H](C)C(N)=O)NC(=O)[C@H](CC2CCC2)NC(=O)[C@H](CCC(N)=O)NC(=O)[C@H](C)NC(=O)[C@H](Cc2c[nH]c3ccccc23)NC(=O)[C@H](Cc2ccc(O)cc2)NC(=O)[C@H](CCC(=O)O)NC1=O)[C@@H](C)O [MP-032] (Ac-[Lys(N3)][βAla]LTF[R8]EYWAQ[Cba][S5]AAAAAA-NH2; staple 6-13) | Poorly Behaved | 0.708 | Poorly Behaved |  |  |  |  | EC50 ([1]; LDH: Cytotoxicity assay: EC50): > 50.7 µM; Solubility [2]: P.B.; EC50 [3]: 26.6 µM; EC50 [4]: 0.96 µM; EPSA [6]: 194 A^2; half-life at 1 μM [7]: 30 min
2 | CC(=O)N[C@@H](CCCCN=[N+]=[N-])C(=O)NCCC(=O)N[C@@H](CC(C)C)C(=O)N[C@H](C(=O)N[C@@H](Cc1ccccc1)C(=O)N[C@]1(C)CCCCCCC=CCCC[C@@](C)(C(=O)N[C@@H](CCCCNC(=N)N)C(=O)N[C@@H](C)C(=O)N[C@@H](C)C(N)=O)NC(=O)[C@H](CC2CCC2)NC(=O)[C@H](CCC(N)=O)NC(=O)[C@H](C)NC(=O)[C@H](Cc2c[nH]c3ccccc23)NC(=O)[C@H](Cc2ccc(O)cc2)NC(=O)[C@H](CCC(=O)O)NC1=O)[C@@H](C)O [MP-901] (Ac-[Lys(N3)][βAla]LTF[R8]EYWAQ[Cba][S5][hArg]AA-NH2; staple 6-13) | Poorly Behaved | 0.46 | Poorly Behaved | > 50.6 | 186 |  |  | 
3 | CC(=O)N[C@@H](CO)C(=O)NCC(=O)N[C@@H](CO)C(=O)N[C@H](C(=O)N[C@@H](CO)C(=O)N[C@@H](Cc1ccccc1)C(=O)N[C@]1(C)CCCCCCC=CCCC[C@@](C)(C(N)=O)NC(=O)[C@H](CC(C)C)NC(=O)[C@H](CC(C)C)NC(=O)[C@H](C)NC(=O)[C@H](Cc2c[nH]c3ccccc23)NC(=O)[C@H](Cc2ccc(O)cc2)NC(=O)[C@H](CCC(=O)O)NC1=O)[C@@H](C)O [MP-654] |  |  |  | > 50 | 217 | 23 (≈ 39 µg/mL) | 2.3 | Kd [10]: 0.00586 µM; EC50 ([11]; 0% FBS 4Hr): 10.2 µM; EC50 ([11]; 0% FBS 16Hr): 13.8 µM; TETCHO: Counterscreen % Effect ([12]; 0% FBS 4Hr): 1.563%; EC50 ([12]; 0% FBS 4Hr): > 50.6 µM; TETCHO: Counterscreen % Effect ([12]; 0% FBS 16Hr): 3.969%; EC50 ([12]; 0% FBS 16Hr): > 50 µM
4 | CC(=O)N[C@@H](CCCCN=[N+]=[N-])C(=O)NCCC(=O)N[C@@H](CC(C)C)C(=O)N[C@H](C(=O)N[C@@H](Cc1ccccc1)C(=O)N[C@]1(C)CCCCCCC=CCCC[C@@](C)(C(=O)N[C@@H](CO)C(=O)N[C@@H](C)C(=O)N[C@@H](C)C(N)=O)NC(=O)[C@H](CC2CCC2)NC(=O)[C@H](CCC(N)=O)NC(=O)[C@H](CCCCNC(=N)N)NC(=O)[C@H](Cc2c[nH]c3ccccc23)NC(=O)[C@H](Cc2ccc(O)cc2)NC(=O)[C@H](CCC(=O)O)NC1=O)[C@@H](C)O [MP-899] (Ac-[Lys(N3)][βAla]LTF[R8]EYW[hArg]Q[Cba][S5]SAA-NH2; staple 6-13) |  | 0.189 |  | > 50 | 200 | 2 (≈ 4.14 µg/mL) | 2.76 | 
5 | CC(=O)N[C@@H](CCCCN=[N+]=[N-])C(=O)NCCC(=O)N[C@@H](CC(C)C)C(=O)N[C@H](C(=O)N[C@@H](Cc1ccccc1)C(=O)N[C@]1(C)CCCCCCC=CCCC[C@@](C)(C(=O)N[C@@H](CO)C(=O)N[C@@H](C)C(=O)N[C@@H](C)C(N)=O)NC(=O)[C@H](CC2CCC2)NC(=O)[C@H](CCC(N)=O)NC(=O)[C@H](C)NC(=O)[C@H](Cc2c[nH]c3ccccc23)NC(=O)[C@H](Cc2ccc(O)cc2)NC(=O)[C@H](CCCCNC(=N)N)NC1=O)[C@@H](C)O [MP-6898] (Ac-[Lys(N3)][βAla]LTF[R8][hArg]YWAQ[Cba][S5]SAA-NH2; staple 6-13) |  | 2.12 |  | 12.4 | 181 | 2 (≈ 4.02 µg/mL) | 3.21 | 
6 | CC[C@H](C)[C@H](NC(=O)[C@H](CC(C)C)NC(=O)[C@@H]1CCCN1C(C)=O)C(=O)N[C@@H](Cc1ccc(O)cc1)C(=O)N[C@@H](CC(C)C)C(=O)N[C@@H](CCCNC(=N)N)C(=O)N[C@@H](CC(C)C)C(=O)N[C@@H](CC(C)C)C(=O)N[C@@H](CCCNC(=N)N)C(=O)NCC(=O)N[C@@H](CCC(N)=O)C(=O)N[C@@H](Cc1ccccc1)C(=O)N[C@@H](CCCCN=[N+]=[N-])C(=O)NCCC(=O)N[C@@H](CC(C)C)C(=O)N[C@H](C(=O)N[C@@H](Cc1ccccc1)C(=O)N[C@]1(C)CCCCCCC=CCCC[C@@](C)(C(=O)N[C@@H](CO)C(=O)N[C@@H](C)C(=O)N[C@@H](C)C(N)=O)NC(=O)[C@H](CC2CCC2)NC(=O)[C@H](CCC(N)=O)NC(=O)[C@H](C)NC(=O)[C@H](Cc2c[nH]c3ccccc23)NC(=O)[C@H](Cc2ccc(O)cc2)NC(=O)[C@H](CCC(=O)O)NC1=O)[C@@H](C)O [MP-880] |  | 0.569 |  | > 50 | 245 | 2 (≈ 6.88 µg/mL) | 3.54 | 
7 | CC(=O)N[C@@H](CCCCN=[N+]=[N-])C(=O)NCCC(=O)N[C@@H](CC(C)C)C(=O)N[C@H](C(=O)N[C@@H](Cc1ccccc1)C(=O)N[C@]1(C)CCCCCCC=CCCC[C@@](C)(C(=O)N[C@@H](CO)C(=O)N[C@@H](C)C(=O)N[C@@H](CCCCNC(=N)N)C(N)=O)NC(=O)[C@H](CC2CCC2)NC(=O)[C@H](CCC(N)=O)NC(=O)[C@H](C)NC(=O)[C@H](Cc2c[nH]c3ccccc23)NC(=O)[C@H](Cc2ccc(O)cc2)NC(=O)[C@H](CCC(=O)O)NC1=O)[C@@H](C)O [MP-902] (Ac-[Lys(N3)][βAla]LTF[R8]EYWAQ[Cba][S5]SA[hArg]-NH2; staple 6-13) |  | 2.65 |  | > 50 | 191 | 6 (≈ 12.4 µg/mL) | 2.54 | 
8 | CC(=O)N[C@@H](CCCCN=[N+]=[N-])C(=O)NCCC(=O)N[C@@H](CC(C)C)C(=O)N[C@H](C(=O)N[C@@H](Cc1ccccc1)C(=O)N[C@]1(C)CCCCCCC=CCCC[C@@](C)(C(=O)N[C@@H](CO)C(=O)N[C@@H](CCCCNC(=N)N)C(=O)N[C@@H](C)C(N)=O)NC(=O)[C@H](CC2CCC2)NC(=O)[C@H](CCC(N)=O)NC(=O)[C@H](C)NC(=O)[C@H](Cc2c[nH]c3ccccc23)NC(=O)[C@H](Cc2ccc(O)cc2)NC(=O)[C@H](CCC(=O)O)NC1=O)[C@@H](C)O [MP-881] (Ac-[Lys(N3)][βAla]LTF[R8]EYWAQ[Cba][S5]S[hArg]A-NH2; staple 6-13) |  | 1.92 |  | > 50 | 183 | 2 (≈ 4.14 µg/mL) | 2.9 | 
9 | CC(=O)N[C@@H](CCCCN=[N+]=[N-])C(=O)N[C@H](C(=O)N[C@@H](CO)C(=O)N[C@@H](Cc1ccccc1)C(=O)N[C@]1(C)CCCCCCC=CCCC[C@@](C)(C(=O)N[C@@H](CO)C(=O)N[C@@H](C)C(=O)N[C@@H](C)C(N)=O)NC(=O)[C@H](CC2CCC2)NC(=O)[C@H](CCC(N)=O)NC(=O)[C@H](C)NC(=O)[C@H](Cc2c[nH]c3ccccc23)NC(=O)[C@H](Cc2ccc(O)cc2)NC(=O)[C@H](C)NC1=O)[C@@H](C)O [MP-703] (Ac-[Lys(N3)]TSF[R8]AYWAQ[Cba][S5]SAA-NH2; staple 5-12) | Poorly Behaved |  | Poorly Behaved | > 50 | 178 |  |  | EC50 ([11]; 0% FBS 4Hr): 0.302 µM; EC50 ([11]; 0% FBS 16Hr): 0.87 µM; TETCHO: Counterscreen % Effect ([12]; 0% FBS 4Hr): 32.8%; EC50 ([12]; 0% FBS 4Hr): > 50.6 µM
